# Tests used:
# Type in all cases: in vivo
# [1] = test system: Yellow Fever Mosquito (Aedes aegypti, AEDSAE); conditions: Yellow Fever Mosquito; rating class
# How it was run: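 Larvae ~1 day old, in liver powder/water; compound from 4000 ppm DMSO stock diluted with water/acetone (90:10); 6 reps; lidded, RT, 3 d; mortality scored per well, rated.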
# [2] = test system: Cabbage Looper (Trichoplusia ni, TRIPNI); experiment: Bioassays on Cabbage Looper (CL), 128-well diet tray assay; conditions: Trichoplusia ni; Cabbage Looper; rating class; read-out: CL
# How it was run: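 Second-instar larvae (1–5 per well) placed on artificial diet surface-treated with 50 μg/cm^2 test molecule applied in 90:10 acetone-water and dried. Held at 25° C., 14:10 light-dark, for five to seven days. Percent mortality scored per well and averaged over eight wells.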
# [3] = test system: Beet Armyworm (Spodoptera exigua, LAPHEG); experiment: Bioassays on Beet Armyworm (BAW), 128-well diet tray assay; conditions: Spodoptera exigua; Beet Armyworm; rating class; read-out: BAW
# How it was run: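 Percent larval mortality, averaged across eight wells, scored after five to seven days at 25° C. under 14:10 light-dark. Each well held one to five second instars feeding on diet dosed at 50 μg/cm^2 with compound from 90:10 acetone-water, solvent dried off.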
Compound,YFM [1],pest or weed control at 50 µg/cm2 [2] [%],pest or weed control at 50 µg/cm2 [3] [%]
"CCOC(C)C(=O)Nc1c(F)ccc(NC(=O)c2cc(NC(=O)[C@H]3[C@H](c4cc(Cl)c(Cl)c(Cl)c4)C3(Cl)Cl)ccc2Cl)c1F (stereo partly drawn) [F1645, 2-Chloro-5-((1R,3R)-2,2-dichloro-3-(3,4,5-trichlorophenyl)cyclopropane-1-carboxamido)-N-(3-(2-ethoxypropanamido)-2,4-difluorophenyl)benzamide]",A (80–100),50 to 100,50 to 100
"COCC(=O)Nc1c(F)ccc(NC(=O)c2cc(NC(=O)[C@H]3[C@H](c4cc(Cl)c(Cl)c(Cl)c4)C3(Cl)Cl)ccc2Cl)c1F [F1646, 2-Chloro-5-((1R,3R)-2,2-dichloro-3-(3,4,5-trichlorophenyl)cyclopropane-1-carboxamido)-N-(2,4-difluoro-3-(2-methoxyacetamido)phenyl)benzamide]",A (80–100),50 to 100,50 to 100
"O=C(CC(F)(F)F)Nc1c(F)ccc(NC(=O)c2cc(NC(=O)[C@H]3[C@H](c4cc(Cl)c(Cl)c(Cl)c4)C3(Cl)Cl)ccc2Cl)c1F [F1651, 2-Chloro-5-((1R,3R)-2,2-dichloro-3-(3,4,5-trichlorophenyl)cyclopropane-1-carboxamido)-N-(2,4-difluoro-3-(3,3,3-trifluoropropanamido)phenyl)benzamide]",A (80–100),50 to 100,50 to 100
"O=C(CC1CC1)Nc1c(F)ccc(NC(=O)c2cc(NC(=O)[C@H]3[C@H](c4cc(Cl)c(Cl)c(Cl)c4)C3(Cl)Cl)ccc2Cl)c1F [F1653, 2-Chloro-N-(3-(2-cyclopropylacetamido)-2,4-difluorophenyl)-5-((1R,3R)-2,2-dichloro-3-(3,4,5-trichlorophenyl)cyclopropane-1-carboxamido)benzamide]",A (80–100),50 to 100,50 to 100
"CCC(=O)Nc1c(F)ccc(NC(=O)c2cc(NC(=O)[C@H]3[C@H](c4cc(Cl)c(Cl)c(Cl)c4)C3(Cl)Cl)ccc2Cl)c1F [F1654, 2-Chloro-5-((1R,3R)-2,2-dichloro-3-(3,4,5-trichlorophenyl)cyclopropane-1-carboxamido)-N-(2,4-difluoro-3-propionamidophenyl)benzamide]",A (80–100),50 to 100,50 to 100
"CCOC(C)C(=O)Nc1c(F)ccc(NC(=O)c2cc(NC(=O)[C@H]3[C@H](c4ccc(Cl)c(C(F)(F)F)c4)C3(Cl)Cl)ccc2Cl)c1F (stereo partly drawn) [F1660, 2-Chloro-5-((1R,3R)-2,2-dichloro-3-(4-chloro-3-(trifluoromethyl)phenyl)cyclopropane-1-carboxamido)-N-(3-(2-ethoxypropanamido)-2,4-difluorophenyl)benzamide]",A (80–100),50 to 100,50 to 100
"O=C(Nc1ccc(F)c(NC(=O)C2CCCO2)c1F)c1cc(NC(=O)[C@H]2[C@H](c3ccc(Cl)c(C(F)(F)F)c3)C2(Cl)Cl)ccc1Cl (stereo partly drawn) [F1661, N-(3-(2-Chloro-5-((1R,3R)-2,2-dichloro-3-(4-chloro-3-(trifluoromethyl)phenyl)cyclopropane-1-carboxamido)benzamido)-2,6-difluorophenyl)tetrahydrofuran-2-carboxamide]",A (80–100),50 to 100,50 to 100
"CCC(Cl)C(=O)Nc1c(F)ccc(NC(=O)c2cc(NC(=O)[C@H]3[C@H](c4ccc(F)c(C(F)(F)F)c4)C3(Cl)Cl)ccc2Cl)c1F (stereo partly drawn) [F1668, 2-Chloro-N-(3-(2-chlorobutanamido)-2,4-difluorophenyl)-5-((1R,3R)-2,2-dichloro-3-(4-fluoro-3-(trifluoromethyl)phenyl)cyclopropane-1-carboxamido)benzamide]",A (80–100),50 to 100,50 to 100
"CC(Cl)CC(=O)Nc1c(F)ccc(NC(=O)c2cc(NC(=O)[C@H]3[C@H](c4ccc(F)c(C(F)(F)F)c4)C3(Cl)Cl)ccc2Cl)c1F (stereo partly drawn) [F1669, 2-Chloro-N-(3-(3-chlorobutanamido)-2,4-difluorophenyl)-5-((1R,3R)-2,2-dichloro-3-(4-fluoro-3-(trifluoromethyl)phenyl)cyclopropane-1-carboxamido)benzamide]",A (80–100),50 to 100,50 to 100
"O=C(Nc1c(F)ccc(NC(=O)c2cc(NC(=O)[C@H]3[C@H](c4ccc(Cl)c(Cl)c4)C3(Cl)Cl)ccc2Cl)c1F)c1ccno1 [F1671, N-(3-(2-Chloro-5-((1R,3R)-2,2-dichloro-3-(3,4-dichlorophenyl)cyclopropane-1-carboxamido)benzamido)-2,6-difluorophenyl)isoxazole-5-carboxamide]",B (More than 0 – Less than 80),50 to 100,50 to 100
"O=C(Nc1ccc(F)c(NC(=O)C(F)F)c1F)c1cc(NC(=O)[C@H]2[C@H](c3cccc(C(F)(F)F)c3)C2(Cl)Cl)ccc1Cl [F1675, 2-Chloro-5-((1R,3R)-2,2-dichloro-3-(3-(trifluoromethyl)phenyl)cyclopropane-1-carboxamido)-N-(3-(2,2-difluoroacetamido)-2,4-difluorophenyl)benzamide]",A (80–100),50 to 100,50 to 100
"CCC(=O)Nc1c(F)ccc(NC(=O)c2cc(NC(=O)[C@H]3[C@H](c4cccc(C(F)(F)F)c4)C3(Cl)Cl)ccc2Cl)c1F [F1679, 2-Chloro-5-((1R,3R)-2,2-dichloro-3-(3-(trifluoromethyl)phenyl)cyclopropane-1-carboxamido)-N-(2,4-difluoro-3-propionamidophenyl)benzamide]",A (80–100),50 to 100,50 to 100
"Cc1c(F)c(NC(=O)c2cc(NC(=O)[C@H]3[C@H](c4ccc(F)c(C(F)(F)F)c4)C3(Cl)Cl)ccc2Cl)cc(NC(=O)C(F)F)c1F [F1680, 2-Chloro-5-((1R,3R)-2,2-dichloro-3-(4-fluoro-3-(trifluoromethyl)phenyl)cyclopropane-1-carboxamido)-N-(5-(2,2-difluoroacetamido)-2,4-difluoro-3-methylphenyl)benzamide]",B (More than 0 – Less than 80),50 to 100,50 to 100
"O=C(CC1CC1)Nc1c(F)ccc(NC(=O)c2cc(NC(=O)[C@H]3[C@H](c4ccc(F)c(C(F)(F)F)c4)C3(Cl)Cl)ccc2Cl)c1F [F1682, 2-Chloro-N-(3-(2-cyclopropylacetamido)-2,4-difluorophenyl)-5-((1R,3R)-2,2-dichloro-3-(4-fluoro-3-(trifluoromethyl)phenyl)cyclopropane-1-carboxamido)benzamide]",A (80–100),50 to 100,50 to 100
"Cc1c(N)ccc(Br)c1NC(=O)c1cc(NC(=O)[C@H]2[C@H](c3ccc(F)c(C(F)(F)F)c3)C2(Cl)Cl)ccc1Cl [F1684, N-(3-Amino-6-bromo-2-methylphenyl)-2-chloro-5-((1R,3R)-2,2-dichloro-3-(4-fluoro-3-(trifluoromethyl)phenyl)cyclopropane-1-carboxamido)benzamide]",B (More than 0 – Less than 80),50 to 100,50 to 100
"O=C(Nc1ccc(F)c(NC(=O)C(Cl)Cl)c1F)c1cc(NC(=O)[C@H]2[C@H](c3cc(Cl)c(Cl)c(Cl)c3)C2(Cl)Cl)ccc1Cl [F1685, 2-Chloro-5-((1R,3R)-2,2-dichloro-3-(3,4,5-trichlorophenyl)cyclopropane-1-carboxamido)-N-(3-(2,2-dichloroacetamido)-2,4-difluorophenyl)benzamide]",A (80–100),50 to 100,50 to 100
"O=C(Nc1ccc(F)c(NC(=O)C(F)(F)Cl)c1F)c1cc(NC(=O)[C@H]2[C@H](c3cc(Cl)c(Cl)c(Cl)c3)C2(Cl)Cl)ccc1Cl [F1686, 2-Chloro-N-(3-(2-chloro-2,2-difluoroacetamido)-2,4-difluorophenyl)-5-((1R,3R)-2,2-dichloro-3-(3,4,5-trichlorophenyl)cyclopropane-1-carboxamido)benzamide]",A (80–100),50 to 100,50 to 100
"Nc1c(F)ccc(NC(=O)c2cc(NC(=O)[C@H]3[C@H](c4cc(F)cc(C(F)(F)F)c4)C3(Cl)Cl)ccc2Cl)c1F [F1687, N-(3-Amino-2,4-difluorophenyl)-2-chloro-5-((1R,3R)-2,2-dichloro-3-(3-fluoro-5-(trifluoromethyl)phenyl)cyclopropane-1-carboxamido)benzamide]",A (80–100),50 to 100,50 to 100
"Cc1c(NC(=O)c2cc(NC(=O)[C@H]3[C@H](c4ccc(F)c(C(F)(F)F)c4)C3(Cl)Cl)ccc2Cl)ccc(Br)c1[N+](=O)[O-] [F1688, N-(4-Bromo-2-methyl-3-nitrophenyl)-2-chloro-5-((1R,3R)-2,2-dichloro-3-(4-fluoro-3-(trifluoromethyl)phenyl)cyclopropane-1-carboxamido)benzamide]",A (80–100),50 to 100,50 to 100

# — patent US20250228239A1, “MOLECULES HAVING PESTICIDAL UTILITY, AND INTERMEDIATES, COMPOSITIONS, AND PROCESSES, RELATED THERETO” (priority 2024, published 2025)
